{"source": "paper PMC8854719", "about": "“Phase 1A/1B dose-escalation and -expansion study to evaluate the safety, pharmacokinetics, food effects and antitumor activity of pamiparib in advanced solid tumours” (British Journal of Cancer, 2021)", "key": {"[1]": {"assay": "Food-effects cohort: PK fasted vs high-fat meal", "assay_type": "in vivo, human", "method": "Patients in the food-effects cohort received a single dose of pamiparib 60 mg (based on the RP2D) on day 1 of cycle 1, followed by a 5-day washout; patients then received another single dose of 60 mg on day 6. Seven patients in sequence 1 (fast followed by fed) received pamiparib after a ≥ 10-h fast on day 1 and after consuming a standard high-fat meal (described in the Supplemental Appendix) 30 min prior to drug administration on day 6. Six patients in sequence 2 (fed followed by fast) received pamiparib after a high-fat meal on day 1 and after a ≥ 10-h fast on Day 6. From day 8 of cycle 1 onward, patients received 60-mg BID treatment.\nPamiparib in plasma was measured using a validated liquid chromatography-tandem–mass spectrometry assay with a lower limit of quantification of 1.0 ng/mL. The collection schedule for blood samples used to assess the PK profile is presented in the Supplemental Appendix. Summary PK parameters, including area under the concentration-time curve from time 0 to 9 h (AUC0-9) or infinity (AUC0-inf), maximal plasma concentration (Cmax) and time to maximal plasma concentration (Tmax), were estimated. The pharmacodynamic (PD) activity of pamiparib was explored through the evaluation of poly(ADP-ribose [PAR]) formation in peripheral blood mononuclear cells (PBMCs) after pamiparib administration. The schedule for blood sample collection (PK and PBMCs) and additional assessment information for PAR levels in PBMCs and pharmacodynamic activity is presented in the Supplemental Appendix. Antitumor activity was assessed by radiographic imaging (computed tomography or magnetic resonance imaging) during screening, within 28 days of first pamiparib dose, every 6 weeks in the first 12 months and every 9 weeks thereafter.\nAn example of a recommended United States Food and Drug Administration (US FDA) standard high-fat meal comprises two eggs fried in butter, two strips of bacon, two slices of toast with butter, 4 ounces of hash brown potatoes, and 8 ounces of whole milk.\nThe PK profile of pamiparib was assessed based on blood samples collected at predose and 0.5, 1, 2, 4, 6, 9, 24, and 48 hours postdose on Days 1-3 and then at predose and 0.5, 1, 2, 4, 6, and 9 hours postdose on Day 17 of Cycle 1 in Phase 1A. Sparse PK samples were collected in phase 1B Part A. The food effect on the PK of pamiparib was assessed based on blood samples collected at predose and 0.5, 1, 2, 4, 7, 24, and 48 hours postdose on Day 1 and Day 6 of Cycle 1 in phase 1B Part B."}, "[2]": {"test_system": "epithelial ovarian cancer (EOC)", "assay": "GCIG CA-125 response", "assay_type": "in vivo, human", "conditions": "CA-125–evaluable population (n=12)", "method": "Tumour response was evaluated by RECIST v1.1. For patients with ovarian cancer, tumour response was assessed per RECIST v1.1 and by Gynecologic Cancer Intergroup (GCIG) CA-125 criteria. Tumour response for patients with prostate cancer was assessed by Prostate Cancer Clinical Trials Working Group 2 (PCWG2) criteria. Objective response rate (ORR) was defined as the proportion of patients achieving a confirmed complete response (CR) or partial response (PR) on study treatment. Blood tumour antigens (e.g., carcinoembryonic antigen for colorectal cancer, CA-125 for ovarian cancer and prostate-specific antigen [PSA] for mCRPC) were assessed during screening, every 6 weeks after the first pamiparib dose in the first 12 months, and every 9 weeks thereafter.\nThe safety population comprised all patients in the dose-escalation and dose-expansion phases who received at least one dose of pamiparib (Supplementary Table S2). Patients in the safety analysis set for whom valid pamiparib PK parameters were estimated and for whom evaluable PD results were available represented the PK population and the PD population, respectively. The efficacy-evaluable population included patients in the safety analysis set who had at least one evaluable postbaseline tumour assessment or those who discontinued due to clinical disease progression or early death before tumour assessment could be performed. […]"}, "[3]": {"conditions": "single 60 mg dose, high-fat breakfast vs fasted"}}, "data": [{"smiles": "C[C@]12CCCN1CC1=NNC(=O)c3cc(F)cc4[nH]c2c1c34", "note": "[pamiparib]", "values": [{"measurement": "Food effects on pharmacokinetics (in words)", "setting": "[1]; 60 mg single dose", "value": "no food effects"}, {"measurement": "Tmax", "setting": "[1]; human, plasma, oral, single 60 mg dose with a high-fat breakfast, read-out: Median Tmax", "value": 7, "unit": "h"}, {"measurement": "Reduction of AUC0-inf with food", "setting": "[1]; [3]", "value": 12, "unit": "%"}, {"measurement": "Reduction of Cmax with food", "setting": "[1]; [3]", "value": 41, "unit": "%"}, {"measurement": "GCIG CA-125 response rate", "setting": "[2]", "value": 83.3, "unit": "%"}, {"measurement": "Median time to CA-125 response", "setting": "[2]", "value": 1.38, "unit": "months"}]}]}
